Experimental data from patent US20170035724A1, “MAMMALIAN SIRT1 ACTIVATOR” (priority 2015, published 2017).

Key:
mammalian SIRT1 [1] = assay: p53 deacetylation in A549 cells treated with corylin and nicotinamide, Western blotting; type: cell-based, human; details: nicotinamide 1 hour before corylin, then UV, FIG. 6
Method: Nicotinamide is a mammalian SIRT1 inhibitor (Exp Hematol. 2012; 40(4): 342-55), and the compound is used to confirm the foregoing result. After human lung cancer A549 cells were cultured at 37° C. overnight, the cells were treated with a media containing nicotinamide, and then cultured at 37° C. for 1 hour. Corylin in various concentrations was added to the media, and the cells were cultured at 37° C. for 4 hours. After which, the cells were emitted with UV to acetylate p53, and cultured at 37° C. for 4 hours again. Finally, the total protein in the cells were extracted and analyzed using Western blotting.

wild type yeast cells = assay: Replicative life span of wild type yeast cells (passage number); type: cell-based
Method: (§1) A yeast colony was selected and cultured in a YEPD culture media. When the OD value of the media was at 0.6-0.8, 20 μl of the media was added to a YEPD solid media, and then 20-30 yeast cells were selected using a tetrad dissection microscope manipulation system. The selected yeast cells were cultured at 30° C. for 3-5 hours to divide into first generation yeast cells. Afterwards, the first generation yeast cells were cultured at 30° C. for 3-5 hours to divide into second generation yeast cells. The culturing step was repeated until final generation yeast cells which cannot divide anymore existed. Finally, the yeast cells' passage number was counted according to the total division number.

sir2-mutant yeast cells = assay: Replicative life span of sir2-mutant yeast cells (passage number); type: cell-based; details: sir2-mutant yeast cells treated with corylin; untreated 9.8; FIG. 2
Method: as §1

PNC1 [2] = assay: PNC1 transcription in corylin-treated yeast cells (PCR and real-time PCR); type: cell-based; details: various treatment periods; increases with treatment period; FIGS. 4A and 4B
Method: After yeast cells were treated with corylin for various periods, total RNA in the treated yeast cells was extracted. Then, the cDNA corresponding to the extracted RNA was formed using reverse transcription. Finally, the cDNA was analyzed using polymerase chain reaction and real-time polymerase chain reaction.

PNC1 [3] = assay: PNC1 translation (Pnc1 protein) in corylin-treated yeast cells, Western blotting; type: cell-based; details: 50 μM corylin for 10 hours; compared with calorie restriction for 10 hours as positive control; FIG. 4C
Method: To confirm the foregoing result, after yeast cells were treated with corylin in various concentrations for various periods, total protein therein was extracted and analyzed using Western blotting.

mammalian SIRT1 [4] = assay: Mammalian SIRT1 expression in human osteosarcoma U2OS cells, Western blotting; type: cell-based; details: increases with culturing period, FIG. 5A
Method: Human osteosarcoma U2OS cells were seeded and cultured at 37° C. overnight, and then the cells were treated with corylin and cultured at 37° C. again. After various culturing periods, total protein in the treated cells was extracted and analyzed using Western blotting.

p53 [5] = assay: UV-induced p53 acetylation in human lung cancer A549 cells, Western blotting; type: cell-based; details: corylin in various concentrations, 4 hours before UV, FIG. 5B
Method: (§2) After human lung cancer A549 cells or human osteosarcoma U2OS cells were cultured at 37° C. overnight, the cells were treated with various substances, and then cultured at 37° C. for 4 hours. After that, the cells were emitted with UV to acetylate p53, and cultured at 37° C. for 4 hours again. Finally, total protein extracted from the cells was analyzed using Western blotting.

p53 [6] = assay: UV-induced p53 acetylation in human osteosarcoma U2OS cells, Western blotting; type: cell-based; details: corylin in various concentrations, 4 hours before UV, FIG. 5C
Method: as §2

## NC(=O)c1cccnc1 [nicotinamide, Nicotinamide]
Mammalian SIRT1 [1]
  effect on p53 deacetylation caused by corylin: can inhibit the p53 deacetylation caused by corylin

## corylin
Wild type yeast cells; FIG. 3
  effective concentration on replicative life span of a yeast cell: 2 to 100 µM
Wild type yeast cells; FIG. 3, 'preferably'
  preferable effective concentration on replicative life span of a yeast cell: 2 to 15 µM
Wild type yeast cells; wild type yeast cells treated with corylin, untreated 26.9, FIG. 2
  passage number (replicative life span): 33.2
sir2-mutant yeast cells
  passage number (replicative life span): 10.6
PNC1 [2]
  PNC1 transcription: can promote the transcription of PNC1
PNC1 [3]
  Pnc1 expression (PNC1 translation): can obviously express Pnc1
Mammalian SIRT1 [4]
  mammalian SIRT1 expression: can promote the expression of mammalian SIRT1
p53 [5]
  acetylation of p53 induced by UV: can repress the acetylation of p53 induced by UV
p53 [6]
  acetylation of p53 induced by UV: can repress the acetylation of p53 induced by UV
